Numbers after ± are expanded uncertainties.
Assay: xn = mol fraction of the nth substance listed
Conditions: Gas, isochoric method

C=CC(F)(F)F [1,1,1-trifluoro-2-propene] + CC(C)C
Conditions	specific volume [m3/kg]
303.15 K, 47.6 kPa, x2 = 0.282	0.6134 ± 0.11
303.15 K, 169.8 kPa, x2 = 0.898	0.2302 ± 0.0041
308.15 K, 48.4 kPa, x2 = 0.282	0.6136 ± 0.0091
308.15 K, 172.8 kPa, x2 = 0.898	0.2303 ± 0.0041
308.15 K, 192.7 kPa, x2 = 0.434	0.1611 ± 0.0041
308.15 K, 289.5 kPa, x2 = 0.225	0.0942 ± 0.0093
313.15 K, 49.2 kPa, x2 = 0.282	0.6137 ± 0.0088
313.15 K, 175.8 kPa, x2 = 0.898	0.2303 ± 0.0041
313.15 K, 196 kPa, x2 = 0.434	0.1611 ± 0.004
313.15 K, 294.8 kPa, x2 = 0.225	0.0943 ± 0.0093
318.15 K, 50 kPa, x2 = 0.282	0.6139 ± 0.0085
318.15 K, 178.7 kPa, x2 = 0.898	0.2304 ± 0.0041
318.15 K, 199.4 kPa, x2 = 0.434	0.1611 ± 0.004
318.15 K, 300.1 kPa, x2 = 0.225	0.0943 ± 0.0094
323.15 K, 50.8 kPa, x2 = 0.282	0.614 ± 0.0082
323.15 K, 181.7 kPa, x2 = 0.898	0.2304 ± 0.0041
323.15 K, 202.4 kPa, x2 = 0.434	0.1612 ± 0.0039
323.15 K, 305.3 kPa, x2 = 0.225	0.0943 ± 0.0093
328.15 K, 51.6 kPa, x2 = 0.282	0.6141 ± 0.0079
328.15 K, 184.7 kPa, x2 = 0.898	0.2305 ± 0.0041
328.15 K, 205.9 kPa, x2 = 0.434	0.1612 ± 0.0039
328.15 K, 310.5 kPa, x2 = 0.225	0.0943 ± 0.0093
333.15 K, 52.4 kPa, x2 = 0.282	0.6143 ± 0.0075
333.15 K, 187.6 kPa, x2 = 0.898	0.2305 ± 0.004
333.15 K, 209.4 kPa, x2 = 0.434	0.1613 ± 0.0039
333.15 K, 315.8 kPa, x2 = 0.225	0.0943 ± 0.0094
338.15 K, 53.2 kPa, x2 = 0.282	0.6144 ± 0.0073
338.15 K, 190.4 kPa, x2 = 0.898	0.2306 ± 0.0041
338.15 K, 212 kPa, x2 = 0.434	0.1613 ± 0.0038
338.15 K, 320.9 kPa, x2 = 0.225	0.0944 ± 0.0094
343.15 K, 54 kPa, x2 = 0.282	0.6145 ± 0.007
343.15 K, 193.4 kPa, x2 = 0.898	0.2306 ± 0.0041
343.15 K, 215.5 kPa, x2 = 0.434	0.1613 ± 0.0038
343.15 K, 326.1 kPa, x2 = 0.225	0.0944 ± 0.0094
348.15 K, 54.8 kPa, x2 = 0.282	0.6147 ± 0.0067
348.15 K, 196.3 kPa, x2 = 0.898	0.2307 ± 0.004
348.15 K, 218.9 kPa, x2 = 0.434	0.1614 ± 0.0038
348.15 K, 331.3 kPa, x2 = 0.225	0.0944 ± 0.0094
353.15 K, 55.6 kPa, x2 = 0.282	0.6148 ± 0.0064
353.15 K, 199.4 kPa, x2 = 0.898	0.2307 ± 0.004
353.15 K, 222.4 kPa, x2 = 0.434	0.1614 ± 0.0037
353.15 K, 336.5 kPa, x2 = 0.225	0.0944 ± 0.0094
358.15 K, 56.4 kPa, x2 = 0.282	0.6149 ± 0.0062
358.15 K, 202.3 kPa, x2 = 0.898	0.2308 ± 0.004
358.15 K, 225 kPa, x2 = 0.434	0.1614 ± 0.0037
358.15 K, 341.6 kPa, x2 = 0.225	0.0944 ± 0.0094
363.15 K, 57.2 kPa, x2 = 0.282	0.6151 ± 0.006
363.15 K, 205.3 kPa, x2 = 0.898	0.2308 ± 0.004
363.15 K, 228.5 kPa, x2 = 0.434	0.1615 ± 0.0037
363.15 K, 346.8 kPa, x2 = 0.225	0.0945 ± 0.0094
368.15 K, 58.1 kPa, x2 = 0.282	0.6152 ± 0.0057
368.15 K, 208.1 kPa, x2 = 0.898	0.2309 ± 0.004
368.15 K, 231.9 kPa, x2 = 0.434	0.1615 ± 0.0037
368.15 K, 351.9 kPa, x2 = 0.225	0.0945 ± 0.0094
373.15 K, 58.8 kPa, x2 = 0.282	0.6153 ± 0.0055
373.15 K, 211.1 kPa, x2 = 0.898	0.2309 ± 0.0039
373.15 K, 235.2 kPa, x2 = 0.434	0.1615 ± 0.0037
373.15 K, 357.1 kPa, x2 = 0.225	0.0945 ± 0.0096
378.15 K, 59.7 kPa, x2 = 0.282	0.6155 ± 0.0054
378.15 K, 213.4 kPa, x2 = 0.898	0.231 ± 0.0039
378.15 K, 236.9 kPa, x2 = 0.434	0.1616 ± 0.0036
378.15 K, 362.3 kPa, x2 = 0.225	0.0945 ± 0.0096
383.15 K, 60.5 kPa, x2 = 0.282	0.6156 ± 0.0051
383.15 K, 217.1 kPa, x2 = 0.898	0.231 ± 0.0042
383.15 K, 240.1 kPa, x2 = 0.434	0.1616 ± 0.0036
383.15 K, 367.5 kPa, x2 = 0.225	0.0946 ± 0.0094

From the NIST ThermoML archive (doi:10.1021/acs.jced.8b00921)
